Data on one compound can be found in patent US11596623B2, “Methods for treating virus infection or proliferation” (HOWARD UNIVERSITY, priority 2018, dated 2023).

Assay [1] deals with T1, recombinant RACK1A protein (Oryza sativa subsp. japonica, UniProt Q6L4F8).
T1 construct: His tag (C); made in house; host or cells: E. coli BL21(DE3)
Kind of assay: Surface Plasmon Resonance (SPR) binding assay. Further details: species or system rice. Conditions: immobilized recombinant RACK1A, KD50=kd/ka. Here is the method: SD-29 (left panel) and SD-29-12 (right panel) were separately injected three times on the CM5 chip at 0, 1.56 μM, at 3.13 μM, 6.25 μM, 12.5 μM, 25 μM, 50 μM, and 100 μM (top sensor) concentrations (left panel) and at 3.13 μM, 6.25 μM, 12.5 μM, 25 μM, 50 μM, and 100 μM (top sensor) concentrations (right panel).
To obtain in vitro confirmation of the binding of the isolated compounds to the purified RACK1 protein, the small compound SD-29 and its structural analog SD29-12 were evaluated for their binding potential with the recombinant RACK1A proteins using the Surface Plasmon Resonance (SPR) chip. SPR experiments were carried out with a Biacore T200 equipped with a CM5 sensor chip. Briefly, recombinant RACK1A cysteine-tagged protein was immobilized on flow cell (FC) 2 in HEPES buffered saline (10 mM Hepes, pH 7.4, and 150 mM NaCl, 3 mM CaCl2)) using a thiol-coupling kit according to the manufacturer's protocol, resulting in immobilization levels of 4580 response units (RU). FC1 was only activated and inactivated and used as a reference. SD-29 stock solution was diluted to a final concentration of 100, 75, 50, 25, 10 μM and 1 μM injected in 10 mM Hepes, 150 mM NaCl, 3 mM CaCl2), 1% DMSO, and 0.5% P20. Each injection was repeated three times for 60 s. […] KD50 is calculated by the equation: KD50=kd/ka; kd—dissociation rate constant, ka—association rate constant. […]

For the next assay, the system named is HSV-1. As to the kind of experiment: HSV-1 viral protein western blot in HEp-2 cells. Type of assay: cell-based. Conditions: pre-treated 24 hours at 100 μM; 24 h after infection. The source says:
Panel A of FIG. 3 depicts time and concentration dependent virus protein expression to deduce an optimum drug treatment regimen. […] Tubulin expression was used as the loading control for the blots.
HEp-2 cells (ATCC) were used for the infection of HSV-1. The cells were maintained in Dulbecco's Modified Eagle's medium (DMEM) supplemented with 10% fetal calf serum (FCS) and 1% penicillin-streptomycin (PS). Wild-type HSV-1 17 was obtained from R. D. Everett and used previously
Proteins were separated by SDS-PAGE (25 μg loaded in each lane), transferred to nitrocellulose membranes (Amersham Inc., Piscataway, N.J., USA), and blocked with 5% nonfat milk for 60 min at room temperature. Membranes were incubated overnight at 4° C. with primary antibody, followed by incubation with a horseradish peroxidase-coupled secondary antibody and detection with enhanced chemiluminescence (Pierce, Rockford, Ill., USA), according to standard methods. Membranes were stripped with stripping buffer (100 mM 2-mercaptoethanol, 2% SDS, 62.5 mM Tris-HCl, pH 6.8), washed with PBS-0.1% Tween-20, and used to detect additional proteins. For Arabidopsis lysates one-week old seedlings were treated with 10 uM of ABA in the presence/absence of the inhibitor compounds for 12 hours in a growth chamber (overnight) at 22° C. mostly in the dark. […]

For the next assay, the system named is RACK1A protein. As to the kind of experiment: RACK1 protein expression under salt stress, western blot. Particulars: Arabidopsis lysates. Type of assay: in vivo. The source says: The abundant leaf protein Rubisco large subunit (RbcL) was used as a loading control for the blot. The 37 kD RACK1 band was absent from the genetic knockout of RACK1 plants (double mutant-rack1ab lane).
The reported positive expression of RACK1A protein under salt stress condition in Arabidopsis has led us to examine the RACK1A expression in the presence and absence of the inhibitor compounds during salt stresses. We determined that the RACK1A protein expression was specifically modulated by the inhibitor compounds when the lysates with salt or without salt in the presence and absence of the small compounds were probed with an antibody raised by using the full length RACK1A protein as antigen (Agrisera, Vännäs, Sweden, FIG. 2C). […] However, whether the effect of SD29-12 is Arabidopsis salt stress specific condition needs further experimental evidence. As the antibody cross-reacts with all three RACK1 isoforms in Arabidopsis, we used the double knockout (rack1ab) as a negative control on the blot (triple mutant is lethal at the early seedling stage). The large subunit of the abundant leaf protein rubisco (RbcL) was used as loading control for this blot. As the results support the in-silico based prediction, we set out to investigate the effect of the compounds on the mammalian RACK1 based virus proliferation.

T1 sequence (Q6L4F8 whole entry): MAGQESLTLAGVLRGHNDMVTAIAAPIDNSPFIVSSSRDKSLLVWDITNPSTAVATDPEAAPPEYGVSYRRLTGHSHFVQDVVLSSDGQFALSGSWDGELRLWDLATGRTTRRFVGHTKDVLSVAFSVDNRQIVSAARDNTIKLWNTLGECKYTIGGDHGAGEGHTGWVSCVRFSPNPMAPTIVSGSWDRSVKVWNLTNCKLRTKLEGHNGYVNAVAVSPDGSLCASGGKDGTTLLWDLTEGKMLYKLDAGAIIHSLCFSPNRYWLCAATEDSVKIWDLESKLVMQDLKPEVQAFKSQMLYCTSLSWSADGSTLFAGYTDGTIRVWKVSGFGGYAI

In general, Kd refers to the equilibrium constant for the complex coming apart. As to `Nn1c(S)nnc1-c1ccc(F)cc1` [SD-29], the Kd in assay [1] was found to be 42 µM. Further, in the assay with HSV-1, the “HSV-1 protein production (ICP0, ICP8, gD)” value is on record as “repressed HSV-1 protein production”. Moreover, the “RACK1 protein expression under salt stress” value in the assay on RACK1A protein is “inhibited RACK1 protein expression”.
